Reference: PMC7584652 (Nature Communications, 2020)

Experiments:
Conditions in all cases: labelled compound ([5′-α-32P]); 10 mM Tris pH 7.5, 100 mM NaCl, 5 mM MgCl2, room temperature
GuaC = GuaC (Bacillus anthracis, UniProt Q81JJ9)
PurR = PurR (Bacillus anthracis, UniProt A0AAC8NAH2)
RbgA = target: T1, RbgA (Bacillus anthracis, UniProt A0A6L8PZ03)
T1 construct: gene GBAA_3976

YjbM (SAS1) = target: T2, YjbM (SAS1) (Bacillus anthracis, UniProt A0A2P0HBB4)
T2 construct: gene BA_1212

For Nc1nc2c(ncn2[C@@H]2O[C@H](COP(=O)(O)O)[C@@H](OP(=O)(O)OP(=O)(O)O)[C@H]2O)c(=O)[nH]1 [pGpp, guanosine-5′-monophosphate-3′-diphosphate], the “DRaCALA screen in E. coli overexpression lysate” value (shortened to “DRaCALA screen”) (GuaC) was “including HprT, Xpt, Gmk, and GuaC, bound both pGpp and (p)ppGpp”.

For Nc1nc2c(ncn2[C@@H]2O[C@H](COP(=O)(O)OP(=O)(O)O)[C@@H](OP(=O)(O)OP(=O)(O)O)[C@H]2O)c(=O)[nH]1 [ppGpp], the “DRaCALA screen” value (PurR) was “purine nucleotide synthesis proteins (Hpt1, Xpt, Gmk, GuaC, PurA, and PurR)” and the “DRaCALA screen” value (RbgA) was “ribosome and translation regulatory GTPases (HflX, Der, Obg, RbgA, TrmE, and Era)”.

Nc1nc2c(ncn2[C@@H]2O[C@H](COP(=O)(O)OP(=O)(O)OP(=O)(O)O)[C@@H](OP(=O)(O)OP(=O)(O)O)[C@H]2O)c(=O)[nH]1 [pppGpp] was tested, and the “DRaCALA screen” value (YjbM (SAS1)) was “several proteins bind to pppGpp but not ppGpp, including the small alarmone synthetase YjbM”.
